Assays:
Assay type in all cases: cell-based
Mucor plumbeus = assay: Antifungal microplate growth inhibition assay (MIC); details: medium B (½ PDB + 1 mM CaCl2 + 50 mM KCl), 48 h, 24° C., agent used alone
[1] = test system: range of food spoilage strains; assay: Antifungal microplate assay, statements on the whole range of strains; details: 200 ppm (maximum concentration tested), medium B, 48 hours, 24° C.
Description: (§1) Unless otherwise stated the incubation was carried out at 24° C. for 48 hours. Percentages of fungal growth were estimated by microscopic examination of the microplates after the incubation period. The control microcultures were used as a reference in order to estimate fungal growth inhibition.
The following fungal strains were used: Fusarium culmorum, Penicillium chrysogenum, Penicillium roquefortii, Penicillium commune, Penicillium nalgiovense, Mucor plumbeus, Scopulariopsis brevicaulis, Aspergillus versicolor, Alternaria sp., Cladosporium sp. and Trichoderma harzianum.
(§2) The percentage growth inhibition was estimated by microscopic inspection of the microtitre plates, taking the microculture control with no antifungal protein added as a reference for normal fungal growth.
(§3) The Ib-AMP1 pure protein was added to the test solution and mixed with the fungal spore suspension as described above. Following inoculation the plates were incubated at 24° C. for 48 hours. […] A summary of the results obtained is shown on table 14.

Alternaria sp. = assay: Antifungal microplate growth inhibition assay (MIC); details: 48 h, 24° C.; for MIC / concentration required alone to give strong growth inhibition: medium B (½ PDB + 1 mM CaCl2 + 50 mM KCl), agent used alone
Description: as §1
(§4) The antifungal potency of the purified proteins was assessed on different food spoilage fungi using the assay described above. Growth of fungi, collection and harvest of fungal spores were done as previously described (Broekaert et al., 1990, FEMS Microbiol. Lett., 69: 55-60).
as §2
(§5) Following inoculation the plates were incubated at 24° C. for 48 hours.

Cladosporium sp. = assay: as above; details: 48 h, 24° C.; for MIC / concentration required alone to give strong growth inhibition: medium B (½ PDB + 1 mM CaCl2 + 50 mM KCl), agent used alone
Description: as §1, §4, §2, §5

Trichoderma harzianum = assay: as above; details: 48 h, 24° C.; for MIC / concentration required alone to give strong growth inhibition: medium B (½ PDB + 1 mM CaCl2 + 50 mM KCl), agent used alone
Description: as §1, §4, §2, §5

Penicillium roquefortii = assay: Antifungal microplate growth inhibition assay (MIC, growth % of control); details: for MIC / concentration required alone to give strong growth inhibition: medium B (½ PDB + 1 mM CaCl2 + 50 mM KCl), agent used alone; for Fungal growth as compared to the control: individual application
Description: as §1, §4, §2, §5
(§6) Chitinase-I and β-1,3-glucanase were extracted and purified from tobacco according to the method published by Sela-Buurlage, M. B., et al., in 1993 (Plant Physiol. 101, 857-863). The purified enzymes were mixed in a 1:1 ratio and then tested for antifungal activity against the food spoilage fungal strains Penicillium roquefortii and P. chrysogenum. The antifungal assays were carried out as described above. Assessment of growth inhibition was carried out by microscopic examination after 48 and 96 hours incubation at 24° C.
(§7) In Colby's formula, E1=X1Y1/100, X1 and Y1 represent growth as a percentage of control with compound A (dosage p) and compound B (dosage q), respectively. E1 is the i5 expected growth as a percentage of control with the mixture A and B (dosage p+q). […] Comparison of the observed and expected percent inhibition responses (Eobs/Eexp) indicates synergism (Eobs/Eexp>1) or antagonism (Eobs/Eexp<1).

Penicillium chrysogenum = assay: as above; details: for Fungal growth as compared to the control: individual application; for MIC / concentration required alone to give strong growth inhibition: medium B (½ PDB + 1 mM CaCl2 + 50 mM KCl), agent used alone
Description: as §1, §4, §2, §5, §6, §7

Fusarium culmorum = assay: Antifungal microplate growth inhibition assay (MIC); details: 48 h, 24° C.; for MIC / concentration required alone to give strong growth inhibition: medium B (½ PDB + 1 mM CaCl2 + 50 mM KCl), agent used alone
Description: as §1, §4, §2, §3

Penicillium commune = assay: as above; details: medium B (½ PDB + 1 mM CaCl2 + 50 mM KCl), 48 h, 24° C., agent used alone
Description: Unless otherwise stated the incubation was carried out at 24° C. for 48 hours. Percentages of fungal growth were estimated by microscopic examination of the microplates after the incubation period. The control microcultures were used as a reference in order to estimate fungal growth inhibition. […] The antifungal potency of the purified proteins was assessed on different food spoilage fungi using the assay described above. Growth of fungi, collection and harvest of fungal spores were done as previously described (Broekaert et al., 1990, FEMS Microbiol. Lett., 69: 55-60). […] The percentage growth inhibition was estimated by microscopic inspection of the microtitre plates, taking the microculture control with no antifungal protein added as a reference for normal fungal growth.

[2] = medium B, 96 hours, 24° C., used alone
[3] = medium A (½ PDB), protein alone
[4] = medium A (½ PDB), 48 h, 24° C., protein alone

Molecule: COc1ccc(O)c(C(C)(C)C)c1 [BHA, butylated hydroxyanisole]
- MIC / concentration required alone to give strong growth inhibition (Mucor plumbeus): >200 ppm
- Antifungal activity of BHA added alone [1]: no antifungal activity was observed
- MIC / concentration required alone to give strong growth inhibition (Alternaria sp.): >200 ppm
- MIC / concentration required alone to give strong growth inhibition (Cladosporium sp.): >200 ppm
- MIC / concentration required alone to give strong growth inhibition (Trichoderma harzianum): >200 ppm
- MIC / concentration required alone to give strong growth inhibition (Penicillium roquefortii; 48 h, 24° C.): >200 ppm
- Fungal growth as compared to the control (Penicillium chrysogenum; 50 ppm, medium B): 99%
- MIC / concentration required alone to give strong growth inhibition (Penicillium chrysogenum; 48 h, 24° C.): >200 ppm
- MIC / concentration required alone to give strong growth inhibition (Fusarium culmorum): >200 ppm

Molecule: O=C([O-])CN(CCN(CC(=O)[O-])CC(=O)[O-])CC(=O)[O-].[Ca+2].[Na+].[Na+] [CaNa2EDTA, calcium disodium EDTA]
- MIC / concentration required alone to give strong growth inhibition (Penicillium roquefortii; 48 h, 24° C.): >150 ppm
- MIC / concentration required alone to give strong growth inhibition (Penicillium chrysogenum; 48 h, 24° C.): >150 ppm

Molecule: O=C(O)CN(CCN(CC(=O)O)CC(=O)O)CC(=O)O [EDTA]
- MIC / concentration required alone to give strong growth inhibition (Penicillium roquefortii; 48 h, 24° C.): >200 ppm
- MIC / concentration required alone to give strong growth inhibition (Penicillium chrysogenum; 48 h, 24° C.): 200 ppm
- MIC / concentration required alone to give strong growth inhibition (Penicillium commune): >200 ppm

Molecule: C/C=C/C=C/C(=O)[O-].[K+] [K sorbate, potassium sorbate]
- Fungal growth inhibition, % of the controls (Penicillium roquefortii; K sorbate alone, 96 hours incubation, medium B, strain not told apart from P. chrysogenum): 10-20%
- Fungal growth as compared to the control (Penicillium roquefortii; 500 ppm, medium B): 90%
- MIC / concentration required alone to give strong growth inhibition (Penicillium roquefortii; 48 h, 24° C.): 1500 ppm
- Concentration required alone to give strong growth inhibition (Penicillium roquefortii; [2]): >2,000 ppm
- Fungal growth inhibition, % of the controls (Penicillium chrysogenum; K sorbate alone, 96 hours incubation, medium B, strain not told apart from P. roquefortii): 10-20%
- MIC / concentration required alone to give strong growth inhibition (Penicillium chrysogenum; 48 h, 24° C.): 1000 ppm
- Concentration required alone to give strong growth inhibition (Penicillium chrysogenum; [2]): >2,000 ppm

Molecule: CC(O)C(=O)O (stereo not shown) [Lactic acid, lactic acid]
- Fungal growth as compared to the control (Penicillium chrysogenum; 2500 ppm, medium B): 90%
- MIC / concentration required alone to give strong growth inhibition (Penicillium chrysogenum; 48 h, 24° C.): 20,000 ppm

Molecule: O=C([O-])CN(CCN(CC(=O)O)CC(=O)O)CC(=O)[O-].[Na+].[Na+] [Na2H2EDTA, disodium dihydrogen EDTA]
- Fungal growth as compared to the control (Penicillium chrysogenum; 75 ppm, medium B): 90%
- MIC / concentration required alone to give strong growth inhibition (Penicillium chrysogenum; 48 h, 24° C.): >150 ppm

Molecule: O=C([O-])c1ccccc1.[Na+] [Na benzoate, sodium benzoate]
- Fungal growth as compared to the control (Penicillium chrysogenum; 500 ppm, medium B): 99%
- MIC / concentration required alone to give strong growth inhibition (Penicillium chrysogenum; 48 h, 24° C.): 6000 ppm

Molecule: Rs-AFP2: purified antifungal protein of Raphanus sativus (radish) seeds, described in WO93/05153 (QKLCQRPSGTWSGVCGNNNACKNQCIRLEKARHGSCNYVFPAHKCICYFPC; UniProt P30230 30-80, looked up)
- MIC (minimum concentration giving more than 90% growth inhibition) (Alternaria sp.; [3]): 6.25 ppm
- MIC / concentration required alone to give strong growth inhibition (Alternaria sp.): 200 ppm
- MIC (minimum concentration giving more than 90% growth inhibition) (Cladosporium sp.; [3]): 100 ppm
- MIC / concentration required alone to give strong growth inhibition (Cladosporium sp.): >200 ppm
- MIC (minimum concentration giving more than 90% growth inhibition) (Trichoderma harzianum; [3]): 200 ppm
- MIC / concentration required alone to give strong growth inhibition (Trichoderma harzianum): >200 ppm
- Fungal growth as compared to the control (Penicillium roquefortii; 3.1 ppm, medium B): 100%
- MIC (minimum concentration giving more than 90% growth inhibition) (Penicillium roquefortii; [4]): 3 ppm
- MIC / concentration required alone to give strong growth inhibition (Penicillium roquefortii; 48 h, 24° C.): 25 ppm
- MIC (minimum concentration giving more than 90% growth inhibition) (Penicillium chrysogenum; [4]): >200 ppm
- MIC / concentration required alone to give strong growth inhibition (Penicillium chrysogenum; 48 h, 24° C.): >200 ppm
- MIC (minimum concentration giving more than 90% growth inhibition) (Fusarium culmorum; [3]): 3.1 ppm
- MIC / concentration required alone to give strong growth inhibition (Fusarium culmorum): 12.5 ppm
